Read-outs that look alike come from different tables or passages of the source.
How the values were obtained:
[1] = target: EGFR Del19/C797S (Homo sapiens, UniProt P00533, C797S/DEL746-750); test: Biochemical EGFR kinase inhibition assay (Lance Ultra TR-FRET), double mutant del19/C797S
Procedure, shortened: (§1)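 Kinase activity is measured by TR-FRET phosphopeptide detection. Compounds span 0.003 μM to 10 μM; the 1 h reaction at room temperature is quenched with EDTA, then labelled antibody (2 nM) is incubated 60 min before reading.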

[2] = target: EGFR wildtype (WT) (Homo sapiens, UniProt P00533); test: Biochemical EGFR kinase inhibition assay (Lance Ultra TR-FRET), wildtype
Chain of EGFR wildtype (WT) (P00533 25-1210): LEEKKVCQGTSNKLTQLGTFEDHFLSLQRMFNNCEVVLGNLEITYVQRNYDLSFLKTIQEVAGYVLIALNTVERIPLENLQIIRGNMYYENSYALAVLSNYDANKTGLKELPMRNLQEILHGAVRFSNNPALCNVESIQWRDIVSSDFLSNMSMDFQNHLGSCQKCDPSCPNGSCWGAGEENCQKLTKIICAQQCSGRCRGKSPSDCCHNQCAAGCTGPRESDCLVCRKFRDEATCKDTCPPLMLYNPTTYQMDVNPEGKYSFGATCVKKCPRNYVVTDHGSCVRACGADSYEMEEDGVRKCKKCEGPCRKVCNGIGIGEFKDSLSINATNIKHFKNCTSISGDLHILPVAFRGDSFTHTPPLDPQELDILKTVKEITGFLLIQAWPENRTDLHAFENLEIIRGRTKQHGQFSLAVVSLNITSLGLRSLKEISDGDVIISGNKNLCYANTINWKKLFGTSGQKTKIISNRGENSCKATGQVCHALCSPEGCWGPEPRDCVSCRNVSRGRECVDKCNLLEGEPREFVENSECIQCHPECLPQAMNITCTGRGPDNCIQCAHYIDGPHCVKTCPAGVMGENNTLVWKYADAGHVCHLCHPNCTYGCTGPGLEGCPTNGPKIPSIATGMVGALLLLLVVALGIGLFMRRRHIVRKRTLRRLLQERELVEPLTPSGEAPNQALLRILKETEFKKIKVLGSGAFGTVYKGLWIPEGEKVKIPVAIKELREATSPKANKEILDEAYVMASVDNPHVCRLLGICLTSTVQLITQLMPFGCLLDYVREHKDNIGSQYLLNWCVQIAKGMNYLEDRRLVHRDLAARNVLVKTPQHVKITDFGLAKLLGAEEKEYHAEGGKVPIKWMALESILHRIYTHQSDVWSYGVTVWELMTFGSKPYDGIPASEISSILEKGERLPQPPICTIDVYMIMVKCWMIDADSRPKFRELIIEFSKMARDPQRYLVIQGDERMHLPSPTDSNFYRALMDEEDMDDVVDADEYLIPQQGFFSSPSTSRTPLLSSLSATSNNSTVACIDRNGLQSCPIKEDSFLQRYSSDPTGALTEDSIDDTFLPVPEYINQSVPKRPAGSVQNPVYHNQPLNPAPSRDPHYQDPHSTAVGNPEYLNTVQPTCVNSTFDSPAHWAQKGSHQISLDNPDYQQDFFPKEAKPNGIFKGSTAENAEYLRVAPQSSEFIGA
Procedure, shortened: as §1

[3] = target: EGFR L858R/T790M/C797S (Homo sapiens, UniProt P00533, C797S/L858R/T790M); test: Biochemical EGFR kinase inhibition assay (Lance Ultra TR-FRET), triple mutant L858R/T790M/C797S
Chain of EGFR L858R/T790M/C797S (P00533 25-1210 T790M/C797S/L858R): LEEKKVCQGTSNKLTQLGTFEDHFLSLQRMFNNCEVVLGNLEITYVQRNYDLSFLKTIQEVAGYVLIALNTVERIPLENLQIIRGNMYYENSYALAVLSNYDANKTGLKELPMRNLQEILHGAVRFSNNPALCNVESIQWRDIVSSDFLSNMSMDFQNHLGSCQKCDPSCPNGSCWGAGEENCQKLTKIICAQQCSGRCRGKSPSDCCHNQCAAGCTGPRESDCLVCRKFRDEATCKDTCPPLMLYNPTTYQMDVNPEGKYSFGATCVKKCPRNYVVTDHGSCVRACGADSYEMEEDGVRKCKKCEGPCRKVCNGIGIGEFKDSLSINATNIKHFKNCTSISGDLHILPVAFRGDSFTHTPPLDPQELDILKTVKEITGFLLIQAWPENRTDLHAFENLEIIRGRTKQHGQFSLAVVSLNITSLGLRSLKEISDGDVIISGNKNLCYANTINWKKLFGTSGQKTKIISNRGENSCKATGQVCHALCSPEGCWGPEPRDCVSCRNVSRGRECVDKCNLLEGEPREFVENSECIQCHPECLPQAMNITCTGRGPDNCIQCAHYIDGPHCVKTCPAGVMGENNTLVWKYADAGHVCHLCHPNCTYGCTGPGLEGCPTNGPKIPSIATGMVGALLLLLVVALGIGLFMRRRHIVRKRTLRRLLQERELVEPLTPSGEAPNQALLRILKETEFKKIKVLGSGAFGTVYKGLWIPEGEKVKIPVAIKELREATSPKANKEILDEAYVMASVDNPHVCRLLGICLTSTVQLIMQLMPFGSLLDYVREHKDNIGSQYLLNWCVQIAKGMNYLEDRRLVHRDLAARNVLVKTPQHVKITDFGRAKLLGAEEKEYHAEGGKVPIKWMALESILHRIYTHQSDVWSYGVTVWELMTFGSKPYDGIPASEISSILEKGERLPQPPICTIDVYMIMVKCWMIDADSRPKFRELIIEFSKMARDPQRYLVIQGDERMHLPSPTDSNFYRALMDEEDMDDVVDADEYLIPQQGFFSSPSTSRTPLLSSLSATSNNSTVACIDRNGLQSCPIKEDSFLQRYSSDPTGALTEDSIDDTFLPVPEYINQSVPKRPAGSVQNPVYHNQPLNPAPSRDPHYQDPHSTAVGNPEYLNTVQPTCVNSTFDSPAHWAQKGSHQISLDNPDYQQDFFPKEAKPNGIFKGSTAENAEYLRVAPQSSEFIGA
Procedure, shortened: as §1

[4] = target: EGFR Del19/T790M/C797S (Homo sapiens, UniProt P00533, C797S/DEL746-750/T790M); test: Biochemical EGFR kinase inhibition assay (Lance Ultra TR-FRET), triple mutant del19/T790M/C797S
Procedure, shortened: as §1

[5] = target: EGFR L858R/C797S (Homo sapiens, UniProt P00533, C797S/L858R); test: Biochemical EGFR kinase inhibition assay (Lance Ultra TR-FRET), double mutant L858R/C797S
Chain of EGFR L858R/C797S (P00533 25-1210 C797S/L858R): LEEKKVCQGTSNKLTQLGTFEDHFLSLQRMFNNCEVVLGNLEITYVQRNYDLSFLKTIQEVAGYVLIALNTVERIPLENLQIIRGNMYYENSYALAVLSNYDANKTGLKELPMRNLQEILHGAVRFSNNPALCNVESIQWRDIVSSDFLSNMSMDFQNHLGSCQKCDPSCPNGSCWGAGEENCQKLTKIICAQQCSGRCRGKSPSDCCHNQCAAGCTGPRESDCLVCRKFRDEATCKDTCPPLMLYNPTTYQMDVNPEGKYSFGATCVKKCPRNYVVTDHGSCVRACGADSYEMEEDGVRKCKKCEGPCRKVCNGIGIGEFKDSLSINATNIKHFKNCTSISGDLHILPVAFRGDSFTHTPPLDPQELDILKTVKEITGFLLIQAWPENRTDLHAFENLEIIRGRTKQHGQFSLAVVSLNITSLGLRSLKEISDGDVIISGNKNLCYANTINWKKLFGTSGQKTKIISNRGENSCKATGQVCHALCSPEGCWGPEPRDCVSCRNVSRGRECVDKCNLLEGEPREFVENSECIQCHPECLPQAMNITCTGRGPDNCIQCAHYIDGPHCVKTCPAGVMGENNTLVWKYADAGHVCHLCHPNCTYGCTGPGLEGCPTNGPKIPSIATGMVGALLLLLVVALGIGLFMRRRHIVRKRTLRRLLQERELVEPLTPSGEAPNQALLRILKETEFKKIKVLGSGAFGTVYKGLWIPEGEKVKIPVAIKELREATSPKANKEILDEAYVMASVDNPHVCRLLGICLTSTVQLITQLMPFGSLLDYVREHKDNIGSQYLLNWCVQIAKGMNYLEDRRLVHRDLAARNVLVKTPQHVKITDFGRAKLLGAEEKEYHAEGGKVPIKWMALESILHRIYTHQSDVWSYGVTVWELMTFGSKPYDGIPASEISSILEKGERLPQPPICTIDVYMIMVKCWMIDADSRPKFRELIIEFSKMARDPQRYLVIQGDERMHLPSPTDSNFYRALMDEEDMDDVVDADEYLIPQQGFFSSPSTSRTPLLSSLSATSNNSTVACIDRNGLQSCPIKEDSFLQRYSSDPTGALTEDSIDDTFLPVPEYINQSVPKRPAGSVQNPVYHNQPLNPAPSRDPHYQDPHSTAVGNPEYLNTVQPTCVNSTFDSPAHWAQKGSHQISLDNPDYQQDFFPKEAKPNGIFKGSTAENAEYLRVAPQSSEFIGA
Procedure, shortened: as §1

[6] = IC50 Del19/C797S (nM), 100 μM ATP
[7] = Km ATP, read-out: IC50 Del19/C797S (nM) Km ATP
[8] = Km ATP, read-out: IC50 WT (nM) Km ATP
[9] = IC50 L858R/T790M/C797S (nM), 100 μM ATP
[10] = Km ATP, read-out: IC50 L858R/T790M/C797S (nM) Km ATP
[11] = IC50 Del19/T790M/C797S (nM), 100 μM ATP
[12] = Km ATP, read-out: IC50 Del19/T790M/C797S (nM) Km ATP
[13] = IC50 L858R/C797S (nM), 100 μM ATP
[14] = Km ATP, read-out: IC50 L858R/C797S (nM) Km ATP
[15] = ATP at Km, read-out: IC50 Del19/C797S (nM), Km ATP
[16] = ATP at Km, read-out: IC50 WT (nM), Km ATP
[17] = ATP at Km, read-out: IC50 L858R/T790M/C797S (nM), Km ATP
[18] = ATP at Km, read-out: IC50 Del19/T790M/C797S (nM), Km ATP
[19] = ATP at Km, read-out: IC50 L858R/C797S (nM), Km ATP

Chain of EGFR Del19/C797S (P00533 with tags, fused parts or gaps DEL746-750/C797S): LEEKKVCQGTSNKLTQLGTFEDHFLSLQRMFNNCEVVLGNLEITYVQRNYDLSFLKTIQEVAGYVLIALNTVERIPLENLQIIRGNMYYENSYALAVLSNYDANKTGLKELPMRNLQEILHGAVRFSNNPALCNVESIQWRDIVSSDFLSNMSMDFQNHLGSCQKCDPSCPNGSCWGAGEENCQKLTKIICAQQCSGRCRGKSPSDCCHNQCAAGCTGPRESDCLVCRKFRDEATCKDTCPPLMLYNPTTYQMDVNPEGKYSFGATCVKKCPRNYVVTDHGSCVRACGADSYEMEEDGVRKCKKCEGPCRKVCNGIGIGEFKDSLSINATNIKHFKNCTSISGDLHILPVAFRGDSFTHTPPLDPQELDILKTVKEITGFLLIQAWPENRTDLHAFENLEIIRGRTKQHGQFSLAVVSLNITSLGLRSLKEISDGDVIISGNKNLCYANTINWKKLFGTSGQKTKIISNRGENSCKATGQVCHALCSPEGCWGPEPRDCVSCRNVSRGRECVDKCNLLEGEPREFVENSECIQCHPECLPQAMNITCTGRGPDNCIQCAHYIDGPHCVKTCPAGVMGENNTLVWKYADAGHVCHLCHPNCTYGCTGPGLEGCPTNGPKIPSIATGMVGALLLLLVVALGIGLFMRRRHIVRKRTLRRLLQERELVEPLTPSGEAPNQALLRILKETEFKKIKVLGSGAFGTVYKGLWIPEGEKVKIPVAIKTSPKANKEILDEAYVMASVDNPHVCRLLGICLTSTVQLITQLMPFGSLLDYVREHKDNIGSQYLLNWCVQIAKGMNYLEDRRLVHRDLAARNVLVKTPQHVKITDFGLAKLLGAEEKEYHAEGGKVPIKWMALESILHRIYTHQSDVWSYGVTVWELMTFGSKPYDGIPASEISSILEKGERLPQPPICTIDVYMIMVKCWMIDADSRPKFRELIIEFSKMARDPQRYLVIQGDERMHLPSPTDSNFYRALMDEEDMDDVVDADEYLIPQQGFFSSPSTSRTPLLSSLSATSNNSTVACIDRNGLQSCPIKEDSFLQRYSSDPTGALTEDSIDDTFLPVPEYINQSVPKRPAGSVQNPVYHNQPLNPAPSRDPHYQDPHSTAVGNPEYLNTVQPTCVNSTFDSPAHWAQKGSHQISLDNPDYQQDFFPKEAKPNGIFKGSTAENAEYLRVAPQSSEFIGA

| SMILES | IC50 [1, 6] [nM] | IC50 [1, 7] [nM] | IC50 ([2]; IC50 WT (nM), 100 μM ATP) [nM] | IC50 [2, 8] [nM] | IC50 [3, 9] [nM] | IC50 [3, 10] [nM] | IC50 [4, 11] [nM] | IC50 [4, 12] [nM] | IC50 [5, 13] [nM] | IC50 [5, 14] [nM] | IC50 [1, 15] [nM] | IC50 [2, 16] [nM] | IC50 [3, 17] [nM] | IC50 [4, 18] [nM] | IC50 [5, 19] [nM] |
| --- | --- | --- | --- | --- | --- | --- | --- | --- | --- | --- | --- | --- | --- | --- | --- |
| CN(C)CCCn1cc(C#Cc2cnc(Nc3ccnc(-c4cnn(S(=O)(=O)C5CC5)c4)n3)cc2N2CCC(NCCF)CC2)cn1 [Example 145, 2-(1-(Cyclopropylsulfonyl)-1H-pyrazol-4-yl)-N-(5-((1-(3-(dimethylamino)propyl)-1H-pyrazol-4-yl)ethynyl)-4-(4-((2-fluoroethyl)amino)piperidin-1-yl)pyridin-2-yl)pyrimidin-4-amine] | 0.7 | 0.6 | 5550 | 14.2 | 0.3 | 0.1 | 0.2 | 0.2 | 23.4 | 0.5 |  |  |  |  |  |
| CNCC1(C)CCN(c2cc(Nc3ccnc(-c4cnn(S(=O)(=O)C5CC5)c4)n3)ncc2C#Cc2cnn(C)c2)CC1 [Example 146, 2-(1-(Cyclopropylsulfonyl)-1H-pyrazol-4-yl)-N-(5-((1-methyl-1H-pyrazol-4-yl)ethynyl)-4-(4-methyl-4-((methylamino)methyl)piperidin-1-yl)pyridin-2-yl)pyrimidin-4-amine] | 0.5 | 0.2 | 348 | 0.8 | 0.1 | 0.04 | 0.2 | 0.1 | 1.5 | 0.3 |  |  |  |  |  |
| CN1CCC(n2cc(C#Cc3cnc(Nc4ccnc(-c5cnn(S(=O)(=O)C6CC6)c5)n4)cc3N3CCC(C)(CO)CC3)cn2)CC1 [Example 147, (1-(2-((2-(1-(Cyclopropylsulfonyl)-1H-pyrazol-4-yl)pyrimidin-4-yl)amino)-5-((1-(1-methylpiperidin-4-yl)-1H-pyrazol-4-yl)ethynyl)pyridin-4-yl)-4-methylpiperidin-4-yl)methanol] | 0.4 | 0.2 | 43.3 | 0.4 | 0.2 | 0.1 | 0.4 | 0.2 | 0.7 | 0.2 |  |  |  |  |  |
| CN1CC(n2cc(C#Cc3cnc(Nc4ccnc(-c5cnn(S(=O)(=O)C6CC6)c5)n4)cc3N3CCC(C)(CO)CC3)cn2)C1 [Example 148, (1-(2-((2-(1-(Cyclopropylsulfonyl)-1H-pyrazol-4-yl)pyrimidin-4-yl)amino)-5-((1-(1-methylazetidin-3-yl)-1H-pyrazol-4-yl)ethynyl)pyridin-4-yl)-4-methylpiperidin-4-yl)methanol] | 0.3 | 0.2 | 47 | 0.4 | 0.2 | 0.1 | 0.3 | 0.2 | 0.6 | 0.2 |  |  |  |  |  |
| CC1(CO)CCN(c2cc(Nc3ccnc(-c4cnn(S(=O)(=O)C5CC5)c4)n3)ncc2C#Cc2cnn3c2CNCC3)CC1 [Example 149, (1-(2-((2-(1-(Cyclopropylsulfonyl)-1H-pyrazol-4-yl)pyrimidin-4-yl)amino)-5-((4,5,6,7-tetrahydropyrazolo[1,5-a]pyrazin-3-yl)ethynyl)pyridin-4-yl)-4-methylpiperidin-4-yl)methanol] | 0.4 | 0.2 | 853 | 1.6 | 0.2 | 0.1 | 0.4 | 0.2 | 3.4 | 0.3 |  |  |  |  |  |
| CN1CCn2ncc(C#Cc3cnc(Nc4ccnc(-c5cnn(S(=O)(=O)C6CC6)c5)n4)cc3N3CCC(C)(CO)CC3)c2C1 [Example 150, (1-(2-((2-(1-(Cyclopropylsulfonyl)-1H-pyrazol-4-yl)pyrimidin-4-yl)amino)-5-((5-methyl-4,5,6,7-tetrahydropyrazolo[1,5-a]pyrazin-3-yl)ethynyl)pyridin-4-yl)-4-methylpiperidin-4-yl)methanol] | 0.7 | 0.8 | 3760 | 4.9 | 0.5 | 0.2 | 0.5 | 0.5 | 8.9 | 2.2 |  |  |  |  |  |
| CC1(CO)CCN(c2cc(Nc3ccnc(-c4cnn(S(=O)(=O)C5CC5)c4)n3)ncc2C#Cc2cnn3c2CN(CC(F)F)CC3)CC1 [Example 151, (1-(2-((2-(1-(Cyclopropylsulfonyl)-1H-pyrazol-4-yl)pyrimidin-4-yl)amino)-5-((5-(2,2-difluoroethyl)-4,5,6,7-tetrahydropyrazolo[1,5-a]pyrazin-3-yl)ethynyl)pyridin-4-yl)-4-methylpiperidin-4-yl)methanol] | 3.5 |  | > 10000 |  | 3 |  | 2.6 |  | 57.8 |  | 4.2 | 29.4 | 1.1 | 2.4 | 8.6 |
| CN(C)CCCn1cc(C#Cc2cnc(Nc3ccnc(-c4cnn(S(=O)(=O)C5CC5)c4)n3)cc2N2CCC3(CC2)CC(C)(O)C3)cn1 [Example 152, 7-(2-((2-(1-(Cyclopropylsulfonyl)-1H-pyrazol-4-yl)pyrimidin-4-yl)amino)-5-((1-(3-(dimethylamino)propyl)-1H-pyrazol-4-yl)ethynyl)pyridin-4-yl)-2-methyl-7-azaspiro[3.5]nonan-2-ol] | 0.4 |  | 196 |  | 0.2 |  | 0.3 |  | 0.8 |  | 0.1 | 0.6 | 0.1 | 0.2 | 0.2 |
| CNCCC1CCN(c2cc(Nc3ccnc(-c4cnn(S(=O)(=O)C5CC5)c4)n3)ncc2C#Cc2cnn(C)c2)CC1 [Example 153, 2-(1-(Cyclopropylsulfonyl)-1H-pyrazol-4-yl)-N-(5-((1-methyl-1H-pyrazol-4-yl)ethynyl)-4-(4-(2-(methylamino)ethyl)piperidin-1-yl)pyridin-2-yl)pyrimidin-4-amine] | 0.3 |  | 822 |  | 0.1 |  | 0.1 |  | 5.1 |  | 0.3 | 1.9 | 0.04 | 0.1 | 1.8 |
| Cn1cc(C#Cc2cnc(Nc3ccnc(-c4cnn(S(=O)(=O)C5CC5)c4)n3)cc2N2CCC3(CCNCC3)C2)cn1 [Example 154, 2-(1-(Cyclopropylsulfonyl)-1H-pyrazol-4-yl)-N-(5-((1-methyl-1H-pyrazol-4-yl)ethynyl)-4-(2,8-diazaspiro[4.5]decan-2-yl)pyridin-2-yl)pyrimidin-4-amine] | 12 |  | 6720 |  | 4.3 |  | 1.4 |  | 145 |  | 6 | 44.4 | 0.3 | 0.4 | 6.4 |
| Cn1cc(C#Cc2cnc(Nc3ccnc(-c4cnn(S(=O)(=O)C5CC5)c4)n3)cc2N2CC3(CCNCC3)C2)cn1 [Example 155, 2-(1-(Cyclopropylsulfonyl)-1H-pyrazol-4-yl)-N-(5-((1-methyl-1H-pyrazol-4-yl)ethynyl)-4-(2,7-diazaspiro[3.5]nonan-2-yl)pyridin-2-yl)pyrimidin-4-amine] | 34.3 |  | > 10000 |  | 1.9 |  | 0.6 |  | 309 |  | 20.8 | 90.6 | 0.5 | 0.6 | 19.4 |

— patent publication US11981658B2, “Substituted aminopyridine compounds as EGFR inhibitors” (YUHAN CORPORATION, priority 2021, dated 2024)
